In PubChem BioAssay (NCI):
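Interpolation was linear, between the two tested concentrations surrounding the appropriate level; five concentrations were tested over 48 hours in 96-well plates. GI50 is the concentration that inhibits growth by half. TGI: concentration producing complete growth inhibition.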

Columns and labels:
Assay in all cases: inhibition of tumour cell growth, NCI panel, 48 h
[1] = system: MALME-3M melanoma
[2] = system: ACHN renal
[3] = system: KM12 colon
[4] = system: IGROV1 ovarian
[5] = system: OVCAR-4 ovarian
[6] = system: HT29 colon
[7] = system: OVCAR-8 ovarian
[8] = system: UO-31 renal
[9] = system: K-562 leukemia
[10] = system: SK-OV-3 ovarian
[11] = system: OVCAR-3 ovarian
[12] = system: SF-295 CNS
[13] = system: NCI-H460 lung
[14] = system: NCI-H522 lung
[15] = system: DU-145 prostate
[16] = system: MDA-MB-435
[17] = system: HCT-116 colon
[18] = system: PC-3 prostate
[19] = system: NCI-H226 lung
[20] = system: T-47D breast
[21] = system: SNB-75 CNS
[22] = system: RXF 393 renal
[23] = system: HOP-92 NSCLC
[24] = system: COLO 205 colon
[25] = system: HOP-62 NSCLC
[26] = system: SK-MEL-28 melanoma
[27] = system: EKVX NSCLC
[28] = system: M14 melanoma
[29] = system: UACC-62 melanoma
[30] = system: CCRF-CEM leukemia
[31] = system: HL-60(TB) leukemia
[32] = system: MOLT-4 leukemia
[33] = system: SR leukemia
[34] = system: MCF7 breast
[35] = system: BT-549 breast
[36] = system: MDA-MB-231 breast
[37] = system: SK-MEL-2 melanoma
[38] = system: SF-268 CNS
[39] = system: A498 renal
[40] = system: SNB-19 CNS
[41] = system: LOX IMVI melanoma
[42] = system: TK-10 renal
[43] = system: HS 578T breast
[44] = system: U251 CNS
[45] = system: A549 NSCLC
[46] = system: SF-539 CNS
[47] = system: SW-620 colon
[48] = system: CAKI-1 renal
[49] = system: SN12C renal
[50] = system: HCC-2998 colon
[51] = system: HCT-15 colon
[52] = system: UACC-257 melanoma
[53] = system: 786-0 renal
[54] = system: RPMI-8226 leukemia
[55] = system: SK-MEL-5 melanoma
[56] = system: NCI-H23 lung
[57] = system: NCI/ADR-RES ovarian
[58] = system: OVCAR-5 ovarian

Cn1ccnc1C(=O)/C=C/c1ccc(CC(=O)Nc2ccc(F)cc2)cc1
GI50 [1]: 5.28 µM
TGI [1]: 14.9 µM
GI50 [2]: 5.74 µM
TGI [2]: > 25 µM
GI50 [3]: 1.62 µM
TGI [3]: 5.52 µM
GI50 [4]: 2.93 µM
TGI [4]: 16.6 µM
GI50 [5]: 5.68 µM
TGI [5]: > 25 µM
GI50 [6]: 2.27 µM
TGI [6]: 8.21 µM
GI50 [7]: 5.71 µM
TGI [7]: > 25 µM
GI50 [8]: 1.72 µM
TGI [8]: 5.16 µM
GI50 [9]: 0.823 µM
TGI [9]: > 25 µM
GI50 [10]: 9.81 µM
TGI [10]: > 25 µM
GI50 [11]: 0.962 µM
TGI [11]: 3.67 µM
GI50 [12]: 4.55 µM
TGI [12]: 19.1 µM
GI50 [13]: 1.8 µM
TGI [13]: 9.89 µM
GI50 [14]: 3.34 µM
TGI [14]: 8.41 µM
GI50 [15]: 1.24 µM
TGI [15]: 5.97 µM
GI50 [16]: 4.25 µM
TGI [16]: 14.9 µM
GI50 [17]: 0.99 µM
TGI [17]: 3.68 µM
GI50 [18]: 1.99 µM
TGI [18]: 7.96 µM
GI50 [19]: 8.57 µM
TGI [19]: > 25 µM
GI50 [20]: 8.34 µM
TGI [20]: > 25 µM
GI50 [21]: 3.74 µM
TGI [21]: > 25 µM
GI50 [22]: 3.89 µM
TGI [22]: 7.97 µM
GI50 [23]: 4.51 µM
TGI [23]: 13 µM
GI50 [24]: 4.39 µM
TGI [24]: 10.3 µM
GI50 [25]: 4.68 µM
TGI [25]: 19 µM
GI50 [26]: 4.47 µM
TGI [26]: 9.95 µM
GI50 [27]: 5.5 µM
TGI [27]: > 25 µM
GI50 [28]: 3.23 µM
TGI [28]: 7.95 µM
GI50 [29]: 3.51 µM
TGI [29]: 7.75 µM
GI50 [30]: 2 µM
TGI [30]: > 25 µM
GI50 [31]: 1.6 µM
TGI [31]: 12.4 µM
GI50 [32]: 2.32 µM
TGI [32]: 18.1 µM
GI50 [33]: 0.517 µM
TGI [33]: > 25 µM
GI50 [34]: 1.04 µM
TGI [34]: 8.59 µM
GI50 [35]: 1.32 µM
TGI [35]: 6.01 µM
GI50 [36]: 2.96 µM
TGI [36]: 12.8 µM
GI50 [37]: 7.01 µM
TGI [37]: 23.7 µM
GI50 [38]: 2.89 µM
TGI [38]: 13.5 µM
GI50 [39]: 5.65 µM
TGI [39]: 15.3 µM
GI50 [40]: 2.74 µM
TGI [40]: 7.02 µM
GI50 [41]: 0.712 µM
TGI [41]: 3.9 µM
GI50 [42]: 10.5 µM
TGI [42]: > 25 µM
GI50 [43]: 15 µM
TGI [43]: > 25 µM
GI50 [44]: 1.4 µM
TGI [44]: 4.81 µM
GI50 [45]: 6.43 µM
TGI [45]: > 25 µM
GI50 [46]: 3.59 µM
TGI [46]: 7.12 µM
GI50 [47]: 1.97 µM
TGI [47]: 12 µM
GI50 [48]: 3.14 µM
TGI [48]: > 25 µM
GI50 [49]: 1.62 µM
TGI [49]: 6.26 µM
GI50 [50]: 3.78 µM
TGI [50]: 7.95 µM
GI50 [51]: 1.29 µM
TGI [51]: 9.26 µM
GI50 [52]: 6.99 µM
TGI [52]: 21.6 µM
GI50 [53]: 1.37 µM
TGI [53]: 7.09 µM
GI50 [54]: 1.02 µM
TGI [54]: 5.44 µM
GI50 [55]: 4.45 µM
TGI [55]: 8.09 µM
GI50 [56]: 3.04 µM
TGI [56]: 8.56 µM
GI50 [57]: 4.24 µM
TGI [57]: > 25 µM
GI50 [58]: 4.36 µM
TGI [58]: 10.9 µM
